In patent US7696246B2 (Ligand Pharmaceuticals Incorporated, priority 1999, dated 2010):
Read-outs that look alike come from different tables or passages of the source.

How the values were obtained:
human AR [1] = target: T1, human AR (Homo sapiens, UniProt P10275); test: Co-transfection assay, AR agonist activity (CV-1 cells, MTV-LUC reporter); format: cell-based; conditions: for EC50: agonist potency EC50
T1 sequence (P10275 1-920): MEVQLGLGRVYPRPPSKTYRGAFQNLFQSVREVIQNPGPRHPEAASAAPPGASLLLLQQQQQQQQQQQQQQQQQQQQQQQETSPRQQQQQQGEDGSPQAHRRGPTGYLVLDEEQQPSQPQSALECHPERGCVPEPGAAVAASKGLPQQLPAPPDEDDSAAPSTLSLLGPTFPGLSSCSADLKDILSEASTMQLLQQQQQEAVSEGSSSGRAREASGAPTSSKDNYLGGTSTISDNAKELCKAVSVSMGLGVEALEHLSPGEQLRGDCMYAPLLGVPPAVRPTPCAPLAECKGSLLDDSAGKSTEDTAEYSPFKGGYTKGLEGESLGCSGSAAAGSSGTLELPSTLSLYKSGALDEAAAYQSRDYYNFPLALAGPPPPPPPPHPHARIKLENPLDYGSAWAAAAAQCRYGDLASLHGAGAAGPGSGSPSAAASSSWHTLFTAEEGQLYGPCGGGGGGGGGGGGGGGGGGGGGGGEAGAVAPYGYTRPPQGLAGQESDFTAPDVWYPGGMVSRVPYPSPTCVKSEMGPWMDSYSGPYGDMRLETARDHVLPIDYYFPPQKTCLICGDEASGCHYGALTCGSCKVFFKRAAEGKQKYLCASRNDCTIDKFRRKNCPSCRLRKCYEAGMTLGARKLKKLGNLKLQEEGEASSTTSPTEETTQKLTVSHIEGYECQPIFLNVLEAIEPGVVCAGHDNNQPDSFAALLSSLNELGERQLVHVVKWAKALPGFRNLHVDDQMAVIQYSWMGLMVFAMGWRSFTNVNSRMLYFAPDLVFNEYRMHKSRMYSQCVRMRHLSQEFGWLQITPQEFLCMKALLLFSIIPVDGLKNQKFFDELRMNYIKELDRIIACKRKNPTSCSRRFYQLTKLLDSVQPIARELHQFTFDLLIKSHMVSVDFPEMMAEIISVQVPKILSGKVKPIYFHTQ

human AR [2] = target: T1, human AR; test: Co-transfection assay, AR antagonist activity (CV-1 cells, in presence of DHT); format: cell-based
human AR [3] = target: T1, human AR; test: AR whole cell competitive binding assay (COS-1 cells, 3H-DHT); conditions: 1 nM 3H-DHT, Cheng-Prusoff
[4] = CV-1 cells, antagonist potency IC50, DHT at its EC50, read-out: AR Antagonist CV-1 Cells Potency
[5] = CV-1 cells, percent maximal inhibition, DHT at its EC50
[6] = CV-1 cells, percent maximal response relative to reference agonist DHT
[7] = read-out: AR Antagonist CV-1 Cells Potency

Compound	EC50 (human AR [1]; CV-1 cells) [nM]	IC50 (human AR [2]; [4]) [nM]	AR Antagonist CV-1 Cells Efficacy (%) (human AR [2]; [5])	AR Agonist CV-1 Cells Efficacy (%) (human AR [1]; [6])	IC50 (human AR [2]; [7]) [nM]	Ki (human AR [3]) [nM]	IC50 (human AR [2]) [nM]	AR Agonist CV-1 Cells Efficacy (%) (human AR [1])	AR Antagonist CV-1 Cells Efficacy (%) (human AR [2])
4-Methyl-6-(2,4-dichlorolphenyl)-2(1H)-quinolinone [Compound 762]	> 10000	63	81%						
CCCN(c1ccc2[nH]c(=O)cc(C(F)(F)F)c2c1)C(C)CC (racemic) [Compound 255, (±)-6-(N-Propyl-N-1-methylpropyl)amino-4-trifluoromethyl-2(1H)-quinolinone]	25		na (na = not active (i.e. efficacy of <20 and potency of >10,000))	135	> 10000	67			
CC(C)CN(c1ccc2[nH]c(=O)cc(C(F)(F)F)c2c1)C(C)C(F)(F)F (racemic) [Compound 290, (±)-6-(N-Isobutyl-N-2,2,2-trifluoroisopropyl)amino-4-trifluoromethyl-2(1H)-quinolinone]	32		50%	37	50	> 1000			
CC1CCCCN1c1ccc2[nH]c(=O)cc(C(F)(F)F)c2c1 (racemic) [Compound 314, (±)-6-(2-Methyl-1-piperidino)-4-trifluoromethyl-2(1H)-quinolinone]	5.3		na (na = not active (i.e. efficacy of <20 and potency of >10,000))	83	> 10000	4.6			
O=c1cc(C(F)(F)F)c2cc(N3CCCCC3CO)ccc2[nH]1 (racemic) [Compound 331, (±)-6-(2-Hydroxymethyl-1-piperidino)-4-trifluoromethyl-2(1H)-quinolinone]	21		42%	44	5.7	> 1000			
O=c1cc(C(F)(F)F)c2cc(N3CCCC3Cc3ccccc3)ccc2[nH]1 (racemic) [Compound 341, (±)-6-(2-Benzyl-1-pyrrolidino)-4-trifluoromethyl-2(1H)-quinolinone]	> 10000		85%		15	277			
CC1(C)CC2CC(C)(CN2c2ccc3[nH]c(=O)cc(C(F)(F)F)c3c2)C1 (racemic) [Compound 350, (±)-6-(1,3,3-Trimethyl-6-azabicyclo[3.2.1]octanyl-6-)-4-trifluoromethyl-2(1H)-quinolinone]	29		na (na = not active (i.e. efficacy of <20 and potency of >10,000))	73	> 10000	165			
CC1CN(c2ccc3[nH]c(=O)cc(C(F)(F)F)c3c2)C(C(F)(F)F)O1 (racemic) [Compound 351, (±)-6-(2-Trifluoromethyl-5-cis-methyl-1-oxazolidino)-4-trifluoromethyl-2(1H)-quinolinone]	23	> 10000	na (na = not active (i.e. efficacy of <20 and potency of >10,000))	79		31			
CC1COC(C(F)(F)F)N1c1ccc2[nH]c(=O)cc(C(F)(F)F)c2c1 (racemic) [Compound 352, (±)-6-(2-Trifluoromethyl-5-trans-methyl-1-oxazolidino)-4-trifluoromethyl-2(1H)-quinolinone]	12		na (na = not active (i.e. efficacy of <20 and potency of >10,000))	113	> 10000	25			
CCCC1CCC(CCC)N1c1ccc2[nH]c(=O)cc(C(F)(F)F)c2c1 (racemic) [Compound 365, (±)-6-(2,5-trans-Dipropyl-1-pyrrolidino)-4-trifluoromethyl-2(1H)-quinolinone]	55		43%	36	14	124			
CSCC1CCCCN1c1ccc2[nH]c(=O)cc(C(F)(F)F)c2c1 (racemic) [Compound 426, (±)-6-(2-Thiomethoxymethyl-1-piperidino)-4-trifluoromethyl-2(1H)-quinolinone]	45		na (na = not active (i.e. efficacy of <20 and potency of >10,000))	93	> 10000	28			
C=CC1CCCCN1c1ccc2[nH]c(=O)cc(C(F)(F)F)c2c1 (racemic) [Compound 444, (±)-6-(2-Vinyl-1-piperidino)-4-trifluoromethyl-2(1H)-quinolinone]	73		na (na = not active (i.e. efficacy of <20 and potency of >10,000))	83	> 10000	26			
O=c1cc(C(F)(F)F)c2cc(N3CCCCC3CCOCc3ccccc3)ccc2[nH]1 (racemic) [Compound 445, (±)-6-(2-Benzyloxyethyl-1-piperidino)-4-trifluoromethyl-2(1H)-quinolinone]	26		na (na = not active (i.e. efficacy of <20 and potency of >10,000))	104		5.8	> 10000		
CCCNc1ccc2[nH]c(=O)cc(C(F)(F)F)c2c1 [Compound 204, 6-Propylamino-4-trifluoromethyl-2(1H)-quinolinone]								34	72%
CCCCN(CCCC)c1ccc2[nH]c(=O)cc(C(F)(F)F)c2c1 [Compound 220, 6-Dibutylamino-4-trifluoromethyl-2(1H)-quinolinone]								68	54%
CCN(c1ccc2[nH]c(=O)cc(C(F)(F)F)c2c1)C(C)C [Compound 239, 6-(N-Ethyl-N-isopropyl)amino-4-trifluoromethyl-2(1H)-quinolinone]								83	na (key: na = not active (i.e. efficacy of <20 and potency of >10,000))
Cc1cc(=O)[nH]c2ccc(N(CC(F)(F)F)CC(F)(F)F)cc12 [Compound 377, 6-(bis-2,2,2-Trifluoroethyl)amino-4-methyl-2(1H)-quinolinone]								89	na (key: na = not active (i.e. efficacy of <20 and potency of >10,000))
Cc1cc(=O)[nH]c2ccc(N(CC(C)C)CC(F)(F)F)cc12 [Compound 381, 6-(N-Isobutyl-N-2,2,2-trifluoroethyl)amino-4-methyl-2(1H)-quinolinone]			na (na = not active (i.e. efficacy of <20 and potency of >10,000))	72					
CCCNc1ccc2c(C(F)(F)F)cc(=O)[nH]c2c1 [Compound 513, 7-Propylamino-4-trifluoromethyl-2(1H)-quinolinone]									84%
CC(C)Nc1ccc2c(C(F)(F)F)cc(=O)[nH]c2c1 [Compound 514, 7-Isopropylamino-4-trifluoromethyl-2(1H)-quinolinone]									87%
O=c1cc(C(F)(F)F)c2ccc(NCC(F)(F)C(F)(F)F)cc2[nH]1 [Compound 520, 7-(2,2,3,3,3-Pentafluoropropyl)amino-4-trifluoromethyl-2(1H)-quinolinone]									76%
O=c1cc(C(F)(F)F)c2ccc(NCC(F)(F)F)cc2[nH]1 [Compound 523, 7-(N-2,2,2-Trifluoroethyl)amino-4-trifluoromethyl-2(1H)-quinolinone]								29	62%
O=C(Nc1ccc2c(C(F)(F)F)cc(=O)[nH]c2c1)C(F)(F)F [Compound 528, 7-(Trifluoroacetamido)-4-trifluoromethyl-2(1H)-quinolinone]	1300		59%	36	26				
C=CC(C)(C)Nc1ccc2c(C(F)(F)F)cc(=O)[nH]c2c1 [Compound 559, 7-(1,1-Dimethylallyl)amino-4-trifluoromethyl-2(1H)-quinolinone]									92%
CCC(C)c1cc2c(C(F)(F)F)cc(=O)[nH]c2cc1N (stereo not drawn) [Compound 581, 7-Amino-6-sec-butyl-4-trifluoromethyl-2(1H)-quinolinone]			23%	39					
